From PMC12280919, “Arylsulfamates inhibit colonic Bacteroidota growth through a sulfatase-independent mechanism” (Proceedings of the National Academy of Sciences of the …, 2025)
Structures can show the parent of a compound that is named as a salt.

How the values were obtained:
PaAstA [1] = biological target: T1, PaAstA (Pseudomonas aeruginosa, UniProt P51691); test: 4-nitrophenolate release, A400; type: biochemical; details: 1 mM substrate, pH 7.0, 5 mM CaCl2, 20-25 °C
T1 construct: gene atsA; S1_4 sulfatase
T1 sequence (P51691 2-536): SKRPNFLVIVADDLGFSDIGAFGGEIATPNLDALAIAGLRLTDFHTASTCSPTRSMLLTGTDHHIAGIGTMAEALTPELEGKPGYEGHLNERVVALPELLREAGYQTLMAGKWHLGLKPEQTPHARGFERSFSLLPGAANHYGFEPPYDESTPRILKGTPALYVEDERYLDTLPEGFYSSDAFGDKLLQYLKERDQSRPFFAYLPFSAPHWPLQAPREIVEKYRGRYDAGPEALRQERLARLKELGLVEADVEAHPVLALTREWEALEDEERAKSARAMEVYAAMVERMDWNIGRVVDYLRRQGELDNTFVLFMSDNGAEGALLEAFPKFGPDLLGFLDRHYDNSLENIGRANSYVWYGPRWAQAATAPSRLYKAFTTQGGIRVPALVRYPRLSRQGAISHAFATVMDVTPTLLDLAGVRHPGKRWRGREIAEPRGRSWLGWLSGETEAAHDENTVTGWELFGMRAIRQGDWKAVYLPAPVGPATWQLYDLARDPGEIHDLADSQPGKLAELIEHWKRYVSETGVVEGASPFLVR

BT4322 = biological target: T2, BT4322 (Bacteroides thetaiotaomicron, UniProt Q89ZQ4); test: thermal shift assay (SYPRO Orange DSF); type: binding; details: pH 7.0, 100 mM BTP, 150 mM NaCl, 5% DMSO
T2 construct: gene BT_4322; recombinant in E. coli
T2 sequence (Q89ZQ4 1-308): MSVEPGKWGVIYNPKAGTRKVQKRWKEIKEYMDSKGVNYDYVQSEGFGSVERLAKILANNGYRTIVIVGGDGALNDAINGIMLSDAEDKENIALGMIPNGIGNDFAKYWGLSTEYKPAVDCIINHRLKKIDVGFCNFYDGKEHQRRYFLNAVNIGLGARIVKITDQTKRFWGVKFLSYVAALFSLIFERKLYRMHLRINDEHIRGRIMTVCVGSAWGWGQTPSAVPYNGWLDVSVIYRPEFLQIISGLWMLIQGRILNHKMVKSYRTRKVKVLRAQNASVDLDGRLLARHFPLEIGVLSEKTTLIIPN

PaAstA [2] = biological target: T1, PaAstA; test: 4-nitrophenyl sulfate hydrolysis, A400; also preincubation and jump dilution; type: biochemical; details: 1 mM compound, 1 mM 4-nitrophenyl sulfate, pH 7.0, 5 mM CaCl2, 20-25 °C; irreversible, covalent
BT1636^3S-Gal = biological target: T3, BT1636^3S-Gal (Bacteroides thetaiotaomicron, UniProt Q8A789, S77C); test: microfluidic mobility shift desulfation assay after overnight preincubation and dilution; type: biochemical; details: 1 mM compound, only after preincubation; BODIPY-labelled sulfated substrate, 5 mM CaCl2, 28 °C; formylglycine form
T3 construct: gene BT_1636; recombinant in E. coli TUNER, cobalt IMAC
T3 sequence (Q8A789 23-509 S77C): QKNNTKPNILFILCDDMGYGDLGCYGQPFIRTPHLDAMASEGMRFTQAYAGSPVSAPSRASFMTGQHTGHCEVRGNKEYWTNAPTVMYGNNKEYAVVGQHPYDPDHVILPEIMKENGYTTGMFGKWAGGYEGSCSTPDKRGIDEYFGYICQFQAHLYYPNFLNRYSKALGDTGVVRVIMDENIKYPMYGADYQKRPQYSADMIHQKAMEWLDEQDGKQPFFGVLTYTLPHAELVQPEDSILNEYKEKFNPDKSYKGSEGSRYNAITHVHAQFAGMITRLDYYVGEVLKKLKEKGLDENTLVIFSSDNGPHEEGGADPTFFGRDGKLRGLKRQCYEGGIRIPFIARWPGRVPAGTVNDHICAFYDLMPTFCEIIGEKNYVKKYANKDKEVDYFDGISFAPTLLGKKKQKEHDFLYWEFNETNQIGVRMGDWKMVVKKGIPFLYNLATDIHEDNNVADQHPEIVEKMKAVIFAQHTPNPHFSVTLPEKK

SMILES: O=[N+]([O-])c1ccc(OS(=O)(=O)O)cc1 [4-nitrophenyl sulfate]
- 4-nitrophenolate release, A400 (PaAstA [1]): rapidly hydrolyzed by the family S1 steroid sulfatase PaAsta

SMILES: Nc1ncnc2c1ncn2[C@@H]1O[C@H](COP(=O)(O)OP(=O)(O)OP(=O)(O)O)[C@@H](O)[C@H]1O [ATP]
- dTm (BT4322; stabilizing): The substrate ATP also stabilized BT4322

SMILES: NS(=O)(=O)Oc1ccc(-c2ccccc2)cc1 [compound 2, 4-phenylphenyl sulfamate]
- % inhibition at 1 mM (PaAstA [2]): all arylsulfamates were broadly equivalent in their ability to completely inhibit both enzymes

SMILES: COc1cc2ccccc2cc1OS(N)(=O)=O [compound 17, arylsulfamate 17]
- % inhibition at 1 mM (PaAstA [2]): all arylsulfamates were broadly equivalent in their ability to completely inhibit both enzymes

SMILES: O=S(=O)(F)c1ccccc1 [compound 23, aryl sulfonylfluoride 23]
- % inhibition at 1 mM (BT1636^3S-Gal): > 50%

SMILES: O=c1c2ccccc2[nH]c(=S)n1CCN1CCC(=C(c2ccc(F)cc2)c2ccc(F)cc2)CC1 [diacylglycerol kinase inhibitor II]
- dTm (BT4322; stabilizing): DAGK-II caused a concentration-dependent stabilization

SMILES: Cc1nc2sccn2c(=O)c1CCN1CCC(=C(c2ccccc2)c2ccc(F)cc2)CC1 [diacylglycerol kinase inhibitor I]
- dTm (BT4322; destabilizing): The DAGK-I inhibitor also caused concentration-dependent destabilization
